Where two headings read alike, the source gives them in different places.
Columns and labels:
Assay type in all cases: binding
[1] = target: T1, cysteine residue illustrated in Table 1A or Table 2A (Homo sapiens, UniProt P40337); test: Competitive cysteine profiling of cell lysate with desthiobiotin iodoacetamide probe (96-well sample prep); settings: UniProt P40337
T1 construct: Cells were resuspended in cold PBS on ice and sonicated with a probe sonicator to achieve lysis; endogenous in cells
Protocol: (§1) In some embodiments, the solution sample (e.g., cell sample, cell lysate sample, or comprising isolated proteins) is incubated with a compound of Formula (I) for analysis of protein-probe interactions. In some instances, the solution sample (e.g., cell sample, cell lysate sample, or comprising isolated proteins) is further incubated in the presence of an additional compound probe prior to addition of the compound of Formula (I). […] In such instances, the solution sample is incubated with a probe and a ligand for competitive protein profiling analysis.
(§2) The following 96-well sample prep protocol was used for sample preparation.
(§3) Cells were resuspended in cold PBS on ice and sonicated with a probe sonicator to achieve lysis. 200 μL of lysate containing 5 mg/ml proteome was treated with 2 μL of 100× compound stock in a 2-mL deep-well plate. The treated lysate was subsequently incubate at 25° C. for 1 hr with shaking at 600 rpm. The treated lysate was further incubated with 2 μL of 10 mM desthiobiotin iodoacetamide probe at 25° C. for 1 hr with shaking at 600 rpm. Next, the lysate was further treat with 20 μL of solution of PBS containing 11 mM MgSO4 and 2.5% Turbonuclease stock and incubated at 25° C. for 20 minutes with shaking at 600 rpm. 1.7 mL ice-cold acetone was added to each well and incubated at −20° C. for 2 hr, followed by max speed (4200 rpm) spin for 45 min. Acetone was then decanted and the plates were blotted to remove acetone. The plates were then dried in open air for 20 minutes. After drying, the plates were then covered with foil seal and stored at −80° C. overnight.
(§4) The next day, samples were re-suspended in 90 μL of solution of 9M urea, 50 mM ammonium bicarbonate and 10 mM DTT by incubating at 65C for 20 min with shaking at 1500 rpm. Next, samples were cooled to 37° C. and then 10 μL of 500 mM iodoacetamide solution (92.48 mg/ml) was added. The samples were then incubated at 37° C. for 30 min with shaking at 600 rpm.
(§5) ZEBA desalting plates were equilibrated 4 times using 250 μL of 2M urea, 50 mM ammonium bicarbonate solution followed by centrifugation at 1500 rpm for 2 minutes. After equilibration was complete, samples were applied to ZEBA desalting plate and spin at 1500 rpm for 2 min on top of 1 mL 96-well deep-well collection plate to buffer exchange samples. 4 μL of solution containing 25 mM CaCl2 and 0.25 mg/mL trypsin was added to the plate and the plate was then incubated at 37° C. for 2 hrs with shaking at 600 rpm. 300 μL of solution containing 5% high-capacity streptavidin agarose slurry in 25 mM Tris-HCl pH 7.5, 150 mM NaCl, and 0.1% NP-40 then added. The plate was incubated at 25° C. for 2 hrs with shaking at 600 rpm. Samples were transferred to 25 μm filter plate and spin at 1000 rpm for 2 min. Samples were then washed 3 times with 0.75 mL of wash buffer (25 mM Tris-HCl pH 7.5, 150 mM NaCl, and 0.1% NP-40) followed by washing 3 times with 0.75 mL PBS, and then 4 times with 0.75 mL water. After the washing step, samples were eluted into polypropylene 96-well plate by addition of 250 µL of 50% MeCN/water, 0.1% formic acid and allowed to gravity drip for 10 min, followed by centrifugation at 1000 rpm for 2 min. Speedvac was used to dry the plates at about 45° C. for […]. Then the plates were covered with foil seal and stored at −20° C.
(§6) Samples were resuspended by addition of 20 μl of 12.5% ACN, 0.1% formic acid solution, covered with foil seal, and incubated at 42° C. for 10 minutes with shaking at 600 rpm. Then add 30 μL of 0.1% formic acid solution was added and the plate was covered and incubated at 42° C. for 10 minutes with shaking at 600 rpm. Seal plate was then sealed with a 96-well silicon mat for analysis.

[2] = target: T2, cysteine residue illustrated in Table 1A or Table 2A (Homo sapiens, UniProt A6NGE4); test: as above; settings: UniProt A6NGE4; 500 uM
T2 construct: Cells were resuspended in cold PBS on ice and sonicated with a probe sonicator to achieve lysis; endogenous in cells
Protocol: as §1, §2, §3, §4, §5, §6

[3] = target: T3, cysteine residue illustrated in Table 1A or Table 2A (Homo sapiens, UniProt Q7Z4G1); test: as above; settings: UniProt Q7Z4G1; 100 uM
T3 construct: Cells were resuspended in cold PBS on ice and sonicated with a probe sonicator to achieve lysis; endogenous in cells
Protocol: as §1, §2, §3, §4, §5, §6

[4] = target: T4, cysteine residue illustrated in Table 1A or Table 2A (Homo sapiens, UniProt Q9GZQ3); test: as above; settings: UniProt Q9GZQ3; 500 uM
T4 construct: Cells were resuspended in cold PBS on ice and sonicated with a probe sonicator to achieve lysis; endogenous in cells
Protocol: as §1, §2, §3, §4, §5, §6

[5] = target: T5, cysteine residue illustrated in Table 1A or Table 2A (Homo sapiens, UniProt Q86X83); test: as above; settings: UniProt Q86X83
T5 construct: Cells were resuspended in cold PBS on ice and sonicated with a probe sonicator to achieve lysis; endogenous in cells
Protocol: as §1, §2, §3, §4, §5, §6

[6] = target: T6, AREL1 Apoptosis-resistant E3 ubiquitin protein ligase 1 (Homo sapiens, UniProt O15033); test: Cysteine liganding, probe competition
T6 construct: endogenous in cells
T6 sequence (O15033 1-823): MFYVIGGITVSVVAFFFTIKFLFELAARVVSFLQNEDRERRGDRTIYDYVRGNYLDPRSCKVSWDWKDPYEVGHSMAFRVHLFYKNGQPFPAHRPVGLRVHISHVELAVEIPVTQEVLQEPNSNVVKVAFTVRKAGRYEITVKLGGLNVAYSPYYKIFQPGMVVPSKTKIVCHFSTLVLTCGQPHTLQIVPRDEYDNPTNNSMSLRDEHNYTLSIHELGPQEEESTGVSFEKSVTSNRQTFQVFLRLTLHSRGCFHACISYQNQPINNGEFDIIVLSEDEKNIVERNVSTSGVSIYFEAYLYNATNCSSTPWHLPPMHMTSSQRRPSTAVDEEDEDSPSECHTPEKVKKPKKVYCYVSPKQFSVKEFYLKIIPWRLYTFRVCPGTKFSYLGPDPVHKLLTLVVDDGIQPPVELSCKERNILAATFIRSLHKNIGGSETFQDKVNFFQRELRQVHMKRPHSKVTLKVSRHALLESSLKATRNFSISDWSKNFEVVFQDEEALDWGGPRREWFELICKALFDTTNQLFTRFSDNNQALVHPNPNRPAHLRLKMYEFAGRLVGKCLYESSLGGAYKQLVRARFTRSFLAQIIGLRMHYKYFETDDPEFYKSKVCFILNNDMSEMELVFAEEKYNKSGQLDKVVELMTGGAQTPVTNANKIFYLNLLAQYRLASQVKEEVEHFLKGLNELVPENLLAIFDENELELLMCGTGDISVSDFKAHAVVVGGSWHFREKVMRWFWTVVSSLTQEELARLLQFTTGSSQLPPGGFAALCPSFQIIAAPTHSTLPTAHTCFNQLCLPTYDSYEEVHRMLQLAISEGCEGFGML
Protocol: as §3, §4, §5, §6

COc1ccc2c(c1)CCCN2C(=O)CCl [KB02] was tested, and the “KB02_100 uM_percent_inhibition” value ([1]; KB02 100 uM) was 12%, the “KB02_500 uM_percent_inhibition” value [2] was 55% and the “KB02_100 uM_percent_inhibition” value [3] was 22%. For the same compound, the “KB02_500 uM_percent_inhibition” value [4] was 11%, the “KB02_100 uM_percent_inhibition” value ([5]; 100 uM) was 31% and the “KB02_500 uM_percent_inhibition” value ([5]; 500 uM) was 83%. For the same compound, the inhibition at 100 µM ([6]; 100 uM, UniProt O15033, read-out: KB02_100 uM_percent_inhibition) was 77%, the inhibition at 500 µM ([6]; 500 uM, UniProt O15033, read-out: KB02_500 uM_percent_inhibition) was 96% and the Liganded ([6]; AREL1 Res# 382, uniprot O15033) was “YES”.

With C=CC(=O)N(c1ccccc1)c1ccc(Br)cc1 [KB05] the “KB05_100 uM_percent_inhibition” value ([1]; KB05 100 uM) was 15%, the “KB05_500 uM_percent_inhibition” value ([1]; KB05 500 uM) was 32% and the “KB05_500 uM_percent_inhibition” value [2] was 63%. The “KB05_100 uM_percent_inhibition” value [3] was 33%, the “KB05_500 uM_percent_inhibition” value [4] was 56% and the “KB05_100 uM_percent_inhibition” value ([5]; 100 uM) was 38%. For the same compound, the “KB05_500 uM_percent_inhibition” value ([5]; 500 uM) was 78%, the inhibition at 100 µM ([6]; 100 uM, UniProt O15033, read-out: KB05_100 uM_percent_inhibition) was 69% and the inhibition at 500 µM ([6]; 500 uM, UniProt O15033, read-out: KB05_500 uM_percent_inhibition) was 92%.

O=C(CCl)Nc1cc(C(F)(F)F)cc(C(F)(F)F)c1 [KBO3] was tested, and the “KB03_100 uM_percent_inhibition” value ([1]; KB03 100 uM) was 19%, the “KB03_500 uM_percent_inhibition” value [2] was 41% and the “KB03_100 uM_percent_inhibition” value [3] was 33%. The “KB03_500 uM_percent_inhibition” value [4] was 24%, the “KB03_100 uM_percent_inhibition” value ([5]; 100 uM) was 35% and the “KB03_500 uM_percent_inhibition” value ([5]; 500 uM) was 72%. The “KB03_100 uM_percent_inhibition” value ([6]; 100 uM, UniProt O15033) was 57%, the “KB03_500 uM_percent_inhibition” value ([6]; 500 uM, UniProt O15033) was 87% and the “100 Max” value ([6]; uniprot O15033) was 56.8. For the same compound, the 100 ave ([6]; uniprot O15033) was 49.1, the 500 ave ([6]; uniprot O15033) was 55.1 and the 500 Max ([6]; uniprot O15033, unit assumed) was 55.1%.
